In patent US12145929B2, “Piperidine derivative and pharmaceutical composition for inhibiting autotaxin comprising same” (NEXTGEN BIOSCIENCE CO., LTD., priority 2021, dated 2024):

Molecular target: human Autotaxin protein (Homo sapiens, UniProt Q13822)
Assay: Evaluation of inhibitory activity against human Autotaxin protein (18:1 LysoPC substrate, choline assay kit, absorbance 570 nm)
Type: biochemical
Conditions: compound at 500 nM, 2 hours at 37° C.
Experimental: The solution of each synthesized compound (80 uM, 100% dimethyl sulfoxide) was sequentially diluted 5 times with dimethyl sulfoxide to prepare 6 concentrations. Each concentration of compound was diluted two-fold with 1× test buffer (50 mM Tris-Cl (pH 8.0), 5 mM KCl, 1 mM CaCl2), 1 mM MgCl2, 140 mM NaCl, deionized water, 1 mg/mL BSA), and 1 uL (1.25% dimethyl sulfoxide) of this diluted mixture was dispensed into each well of a 96 well clear round bottom plate. 9 uL of 1× test buffer were added to each well, followed by the addition of 20 uL of 240 nM human Autotaxin protein (buffer: 50 mM Tris-HCl, pH 8.0, with 150 mM sodium chloride and 20% glycerol). 10 uL of sonicated 360 uM 18:1 LysoPC (diluted with 1× test buffer) were added to each well. The reaction was performed for 2 hours in a shaking incubator at 37° C., and a secondary reaction mixture (choline assay kit, KA1662) (65 uL of 1× test buffer: 1 uL of choline oxidase: 1 uL of dye probe) was prepared. 60 uL of the secondary reaction mixture were added to the reaction plate and reacted on a shaker for 30 minutes. Using a SpectraMax iD3 microplate reader, the absorbance was measured at a wavelength of 570 nm. The percentage of inhibition activity (% inhibition) was calculated by the Formula: (1−Absorbancetestgroup/Absorbancecontrol group)×100.

inhibition at 0.5 µM | inhibition (%) at 500 nM | SMILES
71.3% | – | Clc1cc(Cl)cc(CNc2ncc(C3CC(N4CCC(c5cnn[nH]5)CC4)=NO3)cn2)c1 (stereo not shown) [Example 44, 5-(3-(4-(1H-1,2,3-triazol-5-yl)piperidin-1-yl)-4,5-dihydroisoxazol-5-yl)-N-(3,5-dichlorobenzyl)pyrimidin-2-amine]
1.6% | – | c1cc2c(cc1CNc1ncc(C3CC(N4CCC(c5cnn[nH]5)CC4)=NO3)cn1)OCO2 (stereo not shown) [Example 45, 5-(3-(4-(1H-1,2,3-triazol-5-yl)piperidin-1-yl)-4,5-dihydroisoxazol-5-yl)-N-(benzo[d][1,3]dioxol-5-ylmethyl)pyrimidin-2-amine]
29.2% | – | Clc1cc(Cl)cc(CCNc2ncc(C3CC(N4CCC(c5cnn[nH]5)CC4)=NO3)cn2)c1 (stereo not shown) [Example 47, 5-(3-(4-(1H-1,2,3-triazol-5-yl)piperidin-1-yl)-4,5-dihydroisoxazol-5-yl)-N-(3,5-dichlorophenethyl)pyrimidin-2-amine]
3.4% | – | CS(=O)(=O)c1cccc(CNc2ncc(C3CC(N4CCC(c5cnn[nH]5)CC4)=NO3)cn2)c1 (stereo not shown) [Example 48, 5-(3-(4-(1H-1,2,3-triazol-5-yl)piperidin-1-yl)-4,5-dihydroisoxazol-5-yl)-N-(3-(methylsulfonyl)benzyl)pyrimidin-2-amine]
1.2% | – | CS(=O)(=O)c1ccc(CNc2ncc(C3CC(N4CCC(c5cnn[nH]5)CC4)=NO3)cn2)cc1 (stereo not shown) [Example 49, 5-(3-(4-(1H-1,2,3-triazol-5-yl)piperidin-1-yl)-4,5-dihydroisoxazol-5-yl)-N-(4-(methylsulfonyl)benzyl)pyrimidin-2-amine]
7% | – | c1ccc2c(c1)CC(Nc1ncc(C3CC(N4CCC(c5nnn[nH]5)CC4)=NO3)cn1)C2 (stereo not shown) [Example 50, 5-(3-(4-(1H-tetrazol-5-yl)piperidin-1-yl)-4,5-dihydroisoxazol-5-yl)-N-(2,3-dihydro-1H-inden-2-yl)pyrimidin-2-amine]
13.2% | – | FC(F)c1nnc(C2CCN(C3=NOC(c4cnc(NC5Cc6ccccc6C5)nc4)C3)CC2)o1 (stereo not shown) [Example 51, 5-(3-(4-(5-(Difluoromethyl)-1,3,4-oxadiazol-2-yl)piperidin-1-yl)-4,5-dihydroisoxazol-5-yl)-N-(2,3-dihydro-1H-inden-2-yl)pyrimidin-2-amine]
4.8% | – | Fc1cc2c(cc1F)CC(Nc1ncc(C3CC(N4CCC(c5nnn[nH]5)CC4)=NO3)cn1)C2 (stereo not shown) [Example 52, 5-(3-(4-(1H-tetrazol-5-yl)piperidin-1-yl)-4,5-dihydroisoxazol-5-yl)-N-(5,6-difluoro-2,3-dihydro-1H-inden-2-yl)pyrimidin-2-amine]
10.2% | – | Fc1ccc2c(c1)CC(Nc1ncc(C3CC(N4CCC(c5nnc(C(F)(F)F)o5)CC4)=NO3)cn1)C2 (stereo not shown) [Example 53, N-(5-fluoro-2,3-dihydro-1H-inden-2-yl)-5-(3-(4-(5-(trifluoromethyl)-1,3,4-oxadiazol-2-yl)piperidin-1-yl)-4,5-dihydroisoxazol-5-yl)pyrimidin-2-amine]
95.3% | – | CC1CC(c2cnn[nH]2)CCN1c1nnc(-c2cnc(NC3Cc4cc(F)c(F)cc4C3)nc2)o1 (stereo not shown) [Example 54, N-(5,6-difluoro-2,3-dihydro-1H-inden-2-yl)-5-(5-(2-methyl-4-(1H-1,2,3-triazol-5-yl)piperidin-1-yl)-1,3,4-oxadiazol-2-yl)pyrimidin-2-amine]
52% | – | c1cc2c(cc1CNc1ncc(-c3nnc(N4CCC(c5cnn[nH]5)CC4)o3)cn1)OCO2 [Example 55, 5-(5-(4-(1H-1,2,3-triazol-5-yl)piperidin-1-yl)-1,3,4-oxadiazol-2-yl)-N-(benzo[d][1,3]dioxol-5-ylmethyl)pyrimidin-2-amine]
55.8% | – | Clc1ccc(CNc2ncc(-c3nnc(N4CCC(c5cnn[nH]5)CC4)o3)cn2)cc1Cl [Example 56, 5-(5-(4-(1H-1,2,3-triazol-5-yl)piperidin-1-yl)-1,3,4-oxadiazol-2-yl)-N-(3,4-dichlorobenzyl)pyrimidin-2-amine]

More lines, now with the values behind:

SMILES | inhibition at 0.5 µM | inhibition (%) at 500 nM
Cc1nn[nH]c1C1CCN(c2nnc(-c3cnc(NC4Cc5cc(F)c(F)cc5C4)nc3)o2)CC1 [Example 29, N-(5,6-difluoro-2,3-dihydro-1H-inden-2-yl)-5-(5-(4-(4-methyl-1H-1,2,3-triazol-5-yl)piperidin-1-yl)-1,3,4-oxadiazol-2-yl)pyrimidin-2-amine] | 90.8% | –
O=C(/C=C/c1cnc(NC2Cc3cc(F)c(F)cc3C2)nc1)N1CCC(c2cnn[nH]2)CC1 [Example 30, (E)-1-(4-(1H-1,2,3-triazol-5-yl)piperidin-1-yl)-3-(2-((5,6-difluoro-2,3-dihydro-1H-inden-2-yl)amino)pyrimidin-5-yl)prop-2-en-1-one] | 97.8% | –
c1ccc(Cn2nncc2C2CCN(c3cnc(-c4cnc(NC5Cc6ccccc6C5)nc4)o3)CC2)cc1 [Example 31, 5-(5-(4-(1-Benzyl-1H-1,2,3-triazol-5-yl)piperidin-1-yl)oxazol-2-yl)-N-(2,3-dihydro-1H-inden-2-yl)pyrimidin-2-amine] | 8.1% | –
CN(c1ncc(-c2nnc(N3CCC(c4cnn[nH]4)CC3)o2)cn1)C1Cc2cc(F)c(F)cc2C1 [Example 32, 5-(5-(4-(1H-1,2,3-triazol-5-yl)piperidin-1-yl)-1,3,4-oxadiazol-2-yl)-N-(5,6-difluoro-2,3-dihydro-1H-inden-2-yl)-N-methylpyrimidin-2-amine] | 34.3% | –
Cn1nncc1C1CCN(c2nnc(-c3cnc(NC4Cc5cc(F)c(F)cc5C4)nc3)o2)CC1 [Example 33, N-(5,6-difluoro-2,3-dihydro-1H-inden-2-yl)-5-(5-(4-(1-methyl-1H-1,2,3-triazol-5-yl)piperidin-1-yl)-1,3,4-oxadiazol-2-yl)pyrimidin-2-amine] | 78.4% | –
Cn1cc(C2CCN(c3nnc(-c4cnc(NC5Cc6cc(F)c(F)cc6C5)nc4)o3)CC2)nn1 [Example 34, N-(5,6-difluoro-2,3-dihydro-1H-inden-2-yl)-5-(5-(4-(1-methyl-1H-1,2,3-triazol-4-yl)piperidin-1-yl)-1,3,4-oxadiazol-2-yl)pyrimidin-2-amine] | 17.3% | –
c1ccc2c(c1)CC(Nc1ncc(C3CC(N4CCC(c5cnn[nH]5)CC4)=NO3)cn1)C2 (stereo not shown) [Example 35, N-indan-2-yl-5-[3-[4-(1H-triazol-5-yl)-1-piperidyl]-4,5-dihydroisoxazol-5-yl]pyrimidin-2-amine] | 96% | –
c1ccc2c(c1)CC(Nc1ncc(-c3cc(N4CCC(c5cnn[nH]5)CC4)no3)cn1)C2 [Example 36, 5-(3-(4-(1H-1,2,3-triazol-5-yl)piperidin-1-yl)isoxazol-5-yl)-N-(2,3-dihydro-1H-inden-2-yl)pyrimidin-2-amine] | 53.4% | –
Fc1cc2c(cc1F)CC(Nc1ncc(C3CC(N4CCC(c5cnn[nH]5)CC4)=NO3)cn1)C2 (stereo not shown) [Example 37, N-(5,6-difluoroindan-2-yl)-5-[3-[4-(1H-triazol-5-yl)-1-piperidyl]-4,5-dihydroisoxazol-5-yl]pyrimidin-2-amine] | – | 93.2%
Fc1cc2c(cc1F)CC(Nc1ncc(-c3cc(N4CCC(c5cnn[nH]5)CC4)no3)cn1)C2 [Example 38, 5-(3-(4-(1H-1,2,3-triazol-5-yl)piperidin-1-yl)isoxazol-5-yl)-N-(5,6-difluoro-2,3-dihydro-1H-inden-2-yl)pyrimidin-2-amine] | 53.2% | –
Fc1ccc2c(c1)CC(Nc1ncc(C3CC(N4CCC(c5cnn[nH]5)CC4)=NO3)cn1)C2 (stereo not shown) [Example 39, 5-(3-(4-(1H-1,2,3-triazol-5-yl)piperidin-1-yl)-4,5-dihydroisoxazol-5-yl)-N-(5-fluoro-2,3-dihydro-1H-inden-2-yl)pyrimidin-2-amine] | 97.2% | –
Fc1ccc2c(c1)CC(Nc1ncc(-c3cc(N4CCC(c5cnn[nH]5)CC4)no3)cn1)C2 (stereo not shown) [Example 40, 5-(3-(4-(1H-1,2,3-triazol-5-yl)piperidin-1-yl)isoxazol-5-yl)-N-(5-fluoro-2,3-dihydro-1H-inden-2-yl)pyrimidin-2-amine] | 68.5% | –
Fc1cc(F)cc(CNc2ncc(C3CC(N4CCC(c5cnn[nH]5)CC4)=NO3)cn2)c1 (stereo not shown) [Example 41, N-[(3,5-difluorophenyl)methyl]-5-[3-[4-(1H-triazol-5-yl)-1-piperidyl]-4,5-dihydroisoxazol-5-yl]pyrimidin-2-amine] | – | 40.6%
c1ccc(CNc2ncc(C3CC(N4CCC(c5cnn[nH]5)CC4)=NO3)cn2)cc1 (stereo not shown) [Example 42, N-benzyl-5-[3-[4-(1H-triazol-5-yl)-1-piperidyl]-4,5-dihydroisoxazol-5-yl]pyrimidin-2-amine] | – | 8.6%
Fc1ccc(CNc2ncc(C3CC(N4CCC(c5cnn[nH]5)CC4)=NO3)cn2)cc1F (stereo not shown) [Example 43, N-[(3,4-difluorophenyl)methyl]-5-[3-[4-(1H-triazol-5-yl)-1-piperidyl]-4,5-dihydroisoxazol-5-yl]pyrimidin-2-amine] | – | 4.6%
c1cc2c(cc1CNc1ncc(-c3cc(N4CCC(c5cnn[nH]5)CC4)no3)cn1)OCO2 [Example 46, N-(1,3-benzodioxol-5-ylmethyl)-5-[3-[4-(1H-triazol-5-yl)-1-piperidyl]isoxazol-5-yl]pyrimidin-2-amine] | – | 1%
